Tests used:
[1] = system: Fibroblasts derived from a human being; experiment: Effect on cell damage caused by UV-rays irradiation (colony formation); assay type: cell-based; conditions: 100 mM melatonin in phosphate buffer, vs system without melatonin, p < 0.01, Fig. 1
Procedure: Fibroblasts derived from a human being were seeded in a laboratory dish having a diameter of 6 cm, at 400 cells/laboratory dish, and were cultured in Eagle's MEM medium containing 10% fetal calf serum in an incubator at 5% CO₂ , at 37°C for 24 hours. After the medium was exchanged with a phosphate buffer containing 100 mM of melatonin (SIGMA Co.), it was irradiated by UVB (Toshiba FL-SE 20W) at 50 mJ/cm² or 100 mJ/cm², followed by a further culturing for 6 days. The culture was fixed with a 10% neutral formalin, stained with a 30-fold Gimza solution, and the colonies per laboratory dish were counted. The colonies of the irradiated group were divided by the colonies of the non-irradiated group, to measure the colony formation ratio. As a Control, a phosphate buffer containing no melatonin was added. In Fig. 1, (a) is the system containing no melatonin and (b) is the system containing 100 mM of melatonin. […] The risk ratio p becomes statistically significant at p < 0.05. Accordingly, it can be seen that melatonin has a protective effect against cell damage caused by UV-rays irradiation.

hairless mice = assay type: in vivo, albino hairless mice
Procedure: Male albino hairless mice 8 weeks old (strain derived from Skh-HR-1, weight 25 - 35 g) were used, and one group consisted of 12 to 14 mice.
Melatonin (SIGMA Co.) was used as a suspension in 20% ethanol containing physiological saline, and administered by an intraperitoneal injection of 0.1 ml in doses at 3 levels of 0 mg, 1 mg, and 10 mg per day.
A Toshiba FL20-SE was mounted in a cage for irradiation, and irradiation was carried out at an irradiation intensity of 0.94 mW/cm², for 8 minutes per day, three times per week on alternate days for weeks. The irradiation was carried out 57 times, and the total irradiation dose was 25.7 J/cm². The administration of the sample was commenced simultaneously with the UV rays irradiation, and after the completion of the UV rays irradiation, the sample was administered continuously for an additional 10 weeks.
The size of the tumor generated was measured with slide calipers.
A t-examination was practiced for the number of tumors with sizes of 5 mm or more per one individual, and the number of tumors generated with sizes of 5 mm or more is shown in Fig. 2.

tumors = conditions: cited from earlier work

In the case of `COc1ccc2[nH]cc(CCNC(C)=O)c2c1` [melatonin, N-acetyl-5-methoxytryptamine], the colony formation ratio ([1]; UVB 50 mJ/cm²) is reported as “significantly higher colony formation ratio”, the colony formation ratio ([1]; UVB 100 mJ/cm²) is reported as “significantly higher colony formation ratio” and the “protective effect against skin cancer” value (hairless mice; group administered with 10 mg of melatonin per day, intraperitoneal) is reported as “a protective effect against skin cancer was seen”. For the same compound, the “generation and proliferation of tumors (number of tumors generated with sizes of 5 mm or more per one mouse)” value (hairless mice; melatonin administered group (1 mg or 10 mg per day, intraperitoneal), UV irradiated, p < 0.05 on 23 days and 26 days and thereafter, Fig. 2) was “significantly suppressed”, the proliferation of tumors (tumors; experimental leukemia, sarcoma, mammary tumors (literature reports)) was “suppressing of a proliferation of tumors” and the course of tumors (tumors; mammary tumors (Hamilton, 1969) or lung cancer (Lapin and Ebels, 1976)) was “tumors were worsened”.

From patent EP0438856A2, “Use of melatonin to protect the skin against the influence of UV-rays” (SHISEIDO COMPANY LIMITED, priority 1989, dated 1991)
